The values below come from patent publication US20240417405A1, “Substituted Spiro Derivatives” (Janssen Pharmaceutica NV, priority 2021, published 2024).

One test has as its system KO-52 cells. As to the kind of experiment: Proliferation assay, spheroid-like growth, KO-52 (MLL wildtype control cell line). It counts as cell-based, human. The conditions noted are these: Homo sapiens, 192 h, KO-52 control cells, 8 days, confluence as measure of spheroid size; read-out: spheroid assay_OneTime KO-52 IC50. As for the experimental part:
The anti-proliferative effect of menin/MLL protein/protein interaction inhibitor test compounds was assessed in human leukemia cell lines. The cell line MOLM14 harbors a MLL translocation and expresses the MLL fusion proteins MLL-AF9, respectively, as well as the wildtype protein from the second allele. […] KO-52 was used as a control cell line containing two MLL (KMT2A) wildtype alleles in order to exclude compounds that display general cytotoxic effects.
MOLM14 cells were cultured in RPMI-1640 (Sigma Aldrich) supplemented with 10% heat-inactivated fetal bovine serum (HyClone), 2 mM L-glutamine (Sigma Aldrich) and 50 μg/ml gentamycin (Gibco). KO-52 cell lines were propagated in alpha-MEM (Sigma Aldrich) supplemented with 20% heat-inactivated fetal bovine serum (HyClone), 2 mM L-glutamine (Sigma Aldrich) and 50 μg/ml gentamycin (Gibco).
In order to assess the anti-proliferative effects, 200 MOLM14 cells, or 300 KO-52 cells were seeded in 200 μl media per well in 96-well round bottom, ultra-low attachment plates (Costar, catalogue number 7007). Cell seeding numbers were chosen based on growth curves to ensure linear growth throughout the experiment. Test compounds were added at different concentrations and the DMSO content was normalized to 0.3%. Cells were incubated for 8 days at 37° C. and 5% CO2. Spheroid like growth was measured in real-time by live-cell imaging (IncuCyteZOOM, Essenbio, 4× objective) acquiring images at day 8. Confluence (%) as a measure of spheroid size was determined using an integrated analysis tool.
In order to determine the effect of the test compounds over time, the confluence in each well as a measure of spheroid size, was calculated. Confluence of the highest dose of a reference compound was used as baseline for the LC (Low control) and the confluence of DMSO treated cells was used as 0% cytotoxicity (High Control, HC).
Absolute IC50 values were calculated as percent change in confluence as follows:
LC=Low Control: cells treated with e.g. 1 μM of the cytotoxic agent staurosporin, or e.g. cells treated with a high concentration of an alternative reference compound
GraphPad Prism (version 7.00) was used to calculate the IC50. Dose-response equation was used for the plot of % Effect vs Log 10 compound concentration with a variable slope and fixing the maximum to 100% and the minimum to 0%.

For another test, the system named is MOLM14 cells. The test can be described thus: Proliferation assay, spheroid-like growth, MOLM14 (MLL-AF9 rearranged). Format: cell-based, human. Conditions: Homo sapiens, MOLM-14, 192 h, 8 days, confluence as measure of spheroid size, read-out: spheroid assay_OneTime MOLM14 IC50. In a few lines:
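Cells seeded in ultra-low attachment round-bottom wells (200 MOLM14 or 300 KO-52 per well) with compound at several concentrations, DMSO 0.3%, grown 8 days at 37° C, 5% CO2. Spheroid size taken as confluence from day-8 live-cell images; IC50 from variable-slope fit, DMSO as 0% and high-dose reference compound as 100% effect.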

The target of test [1] is T1, menin/MLL (terbium chelate-labeled menin, FITC-MBM1 peptide) (Homo sapiens, UniProt O00255, T541A).
T1 construct: Menin (a.a 1-610-6xhis tag)
T1 sequence (O00255 with tags, fused parts or gaps T541A): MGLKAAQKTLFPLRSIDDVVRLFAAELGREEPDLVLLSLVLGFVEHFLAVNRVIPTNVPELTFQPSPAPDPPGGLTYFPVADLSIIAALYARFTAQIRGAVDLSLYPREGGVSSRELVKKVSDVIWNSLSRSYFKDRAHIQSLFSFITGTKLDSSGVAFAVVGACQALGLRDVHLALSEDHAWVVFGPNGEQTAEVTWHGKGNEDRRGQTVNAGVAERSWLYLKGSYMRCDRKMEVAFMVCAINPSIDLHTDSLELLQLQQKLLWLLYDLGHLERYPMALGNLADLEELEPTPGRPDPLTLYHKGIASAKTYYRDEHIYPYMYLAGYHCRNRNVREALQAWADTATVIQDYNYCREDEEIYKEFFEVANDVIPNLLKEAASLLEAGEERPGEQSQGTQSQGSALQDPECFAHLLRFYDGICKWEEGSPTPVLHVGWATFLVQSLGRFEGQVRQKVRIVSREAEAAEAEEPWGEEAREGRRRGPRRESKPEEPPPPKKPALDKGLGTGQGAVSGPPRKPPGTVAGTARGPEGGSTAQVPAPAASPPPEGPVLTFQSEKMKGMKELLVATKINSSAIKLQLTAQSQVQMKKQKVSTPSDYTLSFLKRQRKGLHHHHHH
As to the kind of experiment: Menin/MLL homogenous time-resolved fluorescence (HTRF) assay. It counts as binding. The conditions noted are these: 30 min incubation. In a few lines:
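Terbium-labeled menin (aa 1-610, His-tagged; 200 pM) preincubated 30 min with compound, then 75 nM FITC-MBM1 peptide added for 15 min at ambient temperature in pH 7.5 Tris buffer, 0.5% DMSO. HTRF ratio 520/490 nm converted to % inhibition. IC50 came from an 11-point four-fold titration from 10 μM, floor 0.1 nM.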
(Time-resolved FRET reads energy transfer from a long-lived donor to a nearby acceptor.)

The structures appear in SMILES notation.

The term IC50 denotes the concentration that inhibits the measured activity by half. For `CC(C)[C@H]([C@H]1C[C@@H](N2CCN(C(=O)N(C)C)CC2)C1)N1CC2(CCN(c3ncnnc3Oc3ccc(F)cc3-c3cncnc3C3CC3)C2)C1` (single isomer, unassigned) [Compound 36], the values for the IC50 (in the test with KO-52 cells; in the test with MOLM14 cells; in test [1]) were 3.05 µM, 10 nM and 0.2 nM, respectively.

Turning to `COCCN(C)[C@H]1C[C@@H]([C@@H](C(C)C)N2CC3(CCN(c4ncnnc4Oc4ccc(F)cc4-c4cncnc4C4CC4)C3)C2)C1` (single isomer, unassigned) [Compound 38], the figures for the IC50 (in the test with KO-52 cells; with MOLM14 cells; in test [1]) were above 15 µM, 6 nM and 0.2 nM, respectively.

Regarding `CC(C)[C@H]([C@H]1C[C@@H](NC2CC2)C1)N1CC2(CCN(c3ncnnc3Oc3ccc(F)cc3-c3cncnc3C3CC3)C2)C1` (single isomer, unassigned) [Compound 39], the results for the IC50 (with KO-52 cells; with MOLM14 cells; in test [1]) were 1.48 µM, 7 nM and 0.1 nM, respectively.

For the molecule `CC(C)[C@H]([C@H]1C[C@@H](N2CC[C@@H](O)C23CC3)C1)N1CC2(CCN(c3ncnnc3Oc3ccc(F)cc3-c3cncnc3C3CC3)C2)C1` (single isomer, unassigned) [Compound 40], the IC50 with KO-52 cells is 0.5 µM; with MOLM14 cells, 10 nM; in test [1], 0.2 nM.

With `CC(C)[C@H]([C@H]1C[C@@H](N2CC[C@H](O)C23CC3)C1)N1CC2(CCN(c3ncnnc3Oc3ccc(F)cc3-c3cncnc3C3CC3)C2)C1` (single isomer, unassigned) [Compound 41], the half-inhibitory concentration (IC50) is above 15 µM in the test with KO-52 cells, 12 nM in the test with MOLM14 cells and 0.2 nM in test [1].

On to `CC(C)[C@H]([C@H]1C[C@@H](N2C[C@H](O)C3(CC3)C2)C1)N1CC2(CCN(c3ncnnc3Oc3ccc(F)cc3-c3cncnc3C3CC3)C2)C1` (single isomer, unassigned) [Compound 45], for which the IC50 with KO-52 cells was 6.33 µM; in the test with MOLM14 cells, below 2 nM; in test [1], 0.2 nM.

Regarding `CC(C)[C@H]([C@H]1C[C@@H](N2C[C@@H](O)C3(CC3)C2)C1)N1CC2(CCN(c3ncnnc3Oc3ccc(F)cc3-c3cncnc3C3CC3)C2)C1` (single isomer, unassigned) [Compound 46], the IC50 with KO-52 cells worked out at 5.93 µM; with MOLM14 cells, 2 nM; in test [1] it was 0.1 nM.

`CC(C)[C@H]([C@H]1C[C@@H](N2CC[C@@](C)(O)C2)C1)N1CC2(CCN(c3ncnnc3Oc3ccc(F)cc3-c3cncnc3C3CC3)C2)C1` (single isomer, unassigned) [Compound 47]: the IC50 is 4.36 µM in the test with KO-52 cells, 3 nM in the test on MOLM14 cells and 0.2 nM in test [1].

Take `CC(C)[C@H]([C@H]1C[C@@H](N2CCCCC2)C1)N1CC2(CCN(c3ncnnc3Oc3ccc(F)cc3-c3cncnc3C3CC3)C2)C1` (single isomer, unassigned) [Compound 48]: the IC50 with KO-52 cells stood at 1.06 µM; with MOLM14 cells, 4 nM; in test [1], 0.3 nM.

In the case of `CC(C)[C@H]([C@H]1C[C@H](N2CCCCC2)C1)N1CC2(CCN(c3ncnnc3Oc3ccc(F)cc3-c3cncnc3C3CC3)C2)C1` (single isomer, unassigned) [Compound 49], the IC50 in the test on KO-52 cells came to 2.13 µM; in the test on MOLM14 cells it was 27 nM; in test [1] it was 0.6 nM.

For the molecule `CC(C)[C@H]([C@H]1C[C@@H](N2CCC[C@@H](C(=O)N(C)C)C2)C1)N1CC2(CCN(c3ncnnc3Oc3ccc(F)cc3-c3cncnc3C3CC3)C2)C1` (single isomer, unassigned) [Compound 50], the IC50 with KO-52 cells was above 15 µM; in the test with MOLM14 cells, below 2 nM; in test [1], 0.1 nM.

As to `CC(C)[C@H]([C@H]1C[C@@H](N2CCC[C@H](C(=O)N(C)C)C2)C1)N1CC2(CCN(c3ncnnc3Oc3ccc(F)cc3-c3cncnc3C3CC3)C2)C1` (single isomer, unassigned) [Compound 51], the 50% inhibitory concentration (IC50) in the test with KO-52 cells turned out to be 14.4 µM; with MOLM14 cells it was 14 nM; in test [1], 0.1 nM.
